Values quoted from earlier work in US20060165788A1, “Lercanidipine pH dependent pulsatile release compositions” (priority 2004, published 2006).

How the values were obtained:
[1] = for time to maximum concentration (Tmax): form (I) and form (II) compared with each other
Caco-2 cell = Caco-2 cell apparatus
[2] = not given; remark: listed apart in the source

time to maximum concentration (Tmax) [1] | bioavailability ([1]; form (II) compared to Form (I)) | plasma concentration (AUCo-t) ([1]; form (II) compared to Form (I)) | permeability, Paap (Caco-2 cell) [cm/s] | increase of amount of lercanidipine absorbed with simultaneous intake of food (in vivo) | presystemic first pass elimination (in vivo) | peak plasma level Tmax (oral administration, immediate release form) [h] | solubility at pH 5 [2] | SMILES
shorter time to maximum concentration | – | – | – | – | – | – | – | COC(=O)C1=C(C)NC(C)=C(C(=O)OC(C)(C)CN(C)CCC(c2ccccc2)c2ccccc2)C1c1cccc([N+](=O)[O-])c1 (stereo not drawn) [form (I)]
delayed time of maximum concentration | higher bioavailability | higher plasma concentration | – | – | – | – | – | COC(=O)C1=C(C)NC(C)=C(C(=O)OC(C)(C)CN(C)CCC(c2ccccc2)c2ccccc2)C1c1cccc([N+](=O)[O-])c1 (stereo not drawn) [form (II)]
– | – | – | 5e-08 | between three and four times | extensive | 1 to 3 | less than 20 μg/ml | COC(=O)C1=C(C)NC(C)=C(C(=O)OC(C)(C)CN(C)CCC(c2ccccc2)c2ccccc2)C1c1cccc([N+](=O)[O-])c1.Cl (stereo not drawn) [Lercanidipine, methyl 1,1,N-trimethyl-N-(3,3-diphenylpropyl)-2-aminoethyl 1,4-dihydro-2,6-dimethyl-4-(3-nitrophenyl)pyridine-3,5-dicarboxylate]
